Source: patent US20220186188A1, “Method for Obtaining Pancreatic Progenitor Cells and Pancreatic Islet Beta Cells By Means of Differentiation of Human Pluripotent Stem Cells” (Asia Regenerative Medicine, Ltd., priority 2019, published 2022)

Key:
[1] = test system: pancreatic progenitor cells differentiated from human induced pluripotent stem cells; assay: Flow cytometry detection of PDX1 in the pancreatic progenitor cell stage (human induced pluripotent stem cells); format: cell-based; details: 2 μM inhibitor in pancreatic progenitor cell medium, 5 days, compared with control group without WNT inhibitor
Experimental: a pancreatic progenitor cell medium was prepared, the medium in step 1) was replaced with the pancreatic progenitor cell medium, and the cells were cultured in a carbon dioxide incubator at 37 degrees Celsius for 5 days, during which the medium was replaced every day, wherein the composition of the pancreatic progenitor cell medium was: with an MCDB131 medium as a basic medium, and the following components at the working concentrations were further included: 0.5% of bovine serum albumin (BSA), 1.5 g/L of sodium bicarbonate, 1×glutamine (GlutaMAX), 10 mM glucose, […] vitamin C, 1×insulin-transferrin-selenium-ethanolamine additive (ITS-X), 50 ng/ml of fibroblast growth factor (KGF), 0.5 μM SANT1 (with smo as an inhibitor target), 100 nM retinoic acid (TTNPB), 500 nM phorbol 12,13-dibutyrate (PDBu), 2 μM ALK inhibitor (K02288), and 2 μM WNT signaling pathway inhibitor XAV-939 (not added in a control group), with the concentrations all being final concentrations. […]

[2] = test system: pancreatic progenitor cells and pancreatic islet β cells differentiated from human embryonic stem cells; assay: Real-time fluorescence quantitative PCR of PDX1, NKX6-1 and INS mRNA (human embryonic stem cells); format: cell-based; details: qPCR
Experimental: a pancreatic progenitor cell medium was prepared, the medium in step 1) was replaced with the pancreatic progenitor cell medium, and the cells were cultured in a carbon dioxide incubator at 37 degrees Celsius for 5 days, during which the medium was replaced every day, wherein the composition of the pancreatic progenitor cell medium was: with an MCDB131 medium as a basic medium, and the following components at the working concentrations were further included: 0.5% of bovine serum albumin (BSA), 1.5 g/L of sodium bicarbonate, 1×glutamine (GlutaMAX), 10 mM glucose, 0.25 M vitamin C, 1×insulin-transferrin-selenium-ethanolamine additive (ITS-X), 50 ng/ml of fibroblast growth factor 7 (KGF), 0.5 μM SANT1 (with smo as an inhibitor target), 100 nM retinoic acid (TTNPB), 500 nM phorbol 12,13-dibutyrate (PDBu), 2 μM ALK inhibitor (K02288), and 2 μM WNT signaling pathway inhibitor XAV-939 (not added in a control group), with the concentrations all being final concentrations.
b. pancreatic islet β cell medium 2 was prepared, the pancreatic islet β cell medium 1 in above-mentioned step a was replaced with the pancreatic islet β cell medium 2, and the cells were cultured in a carbon dioxide incubator at 37 degrees Celsius for 5 days, during which the medium was replaced every day, wherein the composition of the pancreatic islet β cell medium 1 was: with an MCDB131 medium as a basic medium, and the following components at the working concentrations were further included: 20 mM glucose, 2% of bovine serum albumin (BSA), 1.5 g/L of sodium bicarbonate, 1×glutamine (GlutaMAX), 0.05 mM vitamin C, 1×insulin-transferrin-selenium-ethanolamine additive (ITS-X), 2 μM ALK inhibitor (K02288), 1 μM triiodothyronine (T3), 10 μM YO-01027 (Notch signaling pathway inhibitor), and 10 μM zinc sulfate, with the concentrations all being final concentrations; and the composition of the pancreatic islet β cell medium 2 was: with an MCDB131 medium as a basic medium, and the following components at the working concentrations were further included: 20 mM glucose, 2% of bovine serum albumin (BSA), 1.5 g/L of sodium bicarbonate, 1×glutamine (GlutaMAX), 0.05 mM vitamin C, 1×insulin-transferrin-selenium-ethanolamine additive (ITS-X), 1 μM triiodothyronine (T3), 10 μM Repsox (ALK5 inhibitor), 10 μM vitamin E, 10 μg/ml of heparin sodium, 2 μM R428 (Axl inhibitor), 10 μM zinc sulfate, and 10 mM N-acetyl-L-cysteine (N-cys), with the concentrations all being final concentrations.
Cells cultured in a 24-well plate were collected, and washed twice with 500 μl of DPBS at first, then covered with 200 μl of chymotrypsin-trypsin (Trypsin), and placed at 37° C. for 5 minutes of digestion. Whether the cells float in pieces was observed, and the digestion was terminated using 500 μl of DMEM/F12 medium, then the product was centrifuged at 1000 rpm for 3 minutes, the supernatant was removed, and cell pellets were collected and added to a new RNase-free centrifuge tube. […]

[3] = 2 μM inhibitor in pancreatic progenitor cell stage, GAPDH reference

With Oc1nc(-c2ccc(C(F)(F)F)cc2)nc2c1CSCC2 [XAV-939] the “PDX1-positive pancreatic progenitor cells (flow cytometry)” value [1] was “significantly increased”, the “transcription level of the insulin gene INS in the mature pancreatic islet β cell stage” value ([2]; 2 μM inhibitor added in pancreatic progenitor cell stage) was “greatly increased” and the “relative expression of mRNA of NKX6-1 in pancreatic progenitor cells” value [2, 3] was “significantly increased”. The “relative expression of mRNA of PDX1 in pancreatic progenitor cells” value [2, 3] was “significantly increased”.
